Patent US20110135739A1, “Oral Formulations of a Hedgehog Pathway Inhibitor” (priority 2009, published 2011)

Tests used:
[1] = test system: human cell lines derived from patients with pancreatic cancer, medulloblastoma, lung cancer, multiple myeloma, acute lymphocytic leukemia, myelodysplatic …; settings: described in WO 2008083252 and WO 2008083248; cited from earlier work
[2] = Early dissolution experiments / dissolution attempted in various aqueous media; format: physicochemical
Description: Gel formation is problematic from a formulation standpoint because it can result, for example, in irregular release of IPI-926 in vivo. Low rates of dissolution, and subsequent gel formation, persist even when small particle sizes (e.g., less than 150 micrometers) of IPI-926 are employed.
Without wishing to be bound to any particular theory, it was hypothesized that IPI-926 formed the solid agglomerate upon hydration. Accordingly, direct blend formulations were investigated.

Hedgehog pathway = settings: after single administration; cited from earlier work
[3] = test system: preclinical in vivo models, such as medulloblastoma, small cell lung cancer, non-small cell lung cancer, skin cancer, head and neck cancer, and ovarian cancer; settings: a number of preclinical in vivo models; cited from earlier work

In the case of `CC1=C2C[C@H]3[C@@H](CC[C@@H]4C[C@H](NS(C)(=O)=O)CC[C@@]43C)[C@@H]2CC[C@@]2(C1)O[C@@H]1C[C@H](C)CN[C@H]1[C@H]2C.Cl` [IPI-926], the “in vitro growth of human cell lines” value [1] is listed as “inhibit in vitro growth”, the “behaviour when dissolution is attempted” value [2] is listed as “gel, rather than dissolve” and the “Hedgehog pathway inhibition in stromal cells” value (Hedgehog pathway) is listed as “rapid and sustained Hedgehog pathway inhibition”. The tumor growth inhibition [3] was “tumor growth inhibition”.
